Data from patent US20260224588A1, “BENZODIAZEPINONE-DERIVED INHIBITORS OF EGFR AND HER2” (The Research Foundation for the State University of New York, priority 2023, published 2026).
Where two headings read alike, the source gives them in different places.

Experiments:
CDKL5 = CDKL5 (Homo sapiens, UniProt O76039); assay: KINOMEscan; assay type: binding; conditions: 1 μM of compound 4; read-out: POC
PLK3 = PLK3 (Homo sapiens, UniProt Q9H4B4); assay: KINOMEscan; assay type: binding; conditions: 1 μM of compound 4; read-out: POC
FGFR4 = target: T1, FGFR4 (Homo sapiens, UniProt P22455); assay: KINOMEscan; assay type: binding; conditions: 1 μM of compound 4; read-out: POC
T1 construct: purchased Eurofins DiscoverX Corporation

DCAMKL2 = DCAMKL2 (Homo sapiens, UniProt Q8N568); assay: KINOMEscan; assay type: binding; conditions: 1 μM of compound 4; read-out: POC
MST3 = MST3 (Homo sapiens, UniProt Q9Y6E0); assay: KINOMEscan; assay type: binding; conditions: 1 μM of compound 4; read-out: POC
NEK10 = NEK10 (Homo sapiens, UniProt Q6ZWH5); assay: KINOMEscan; assay type: binding; conditions: 1 μM of compound 4; read-out: POC
SYK = target: T2, SYK (Homo sapiens, UniProt P43405); assay: KINOMEscan; assay type: binding; conditions: 1 μM of compound 4; read-out: POC
T2 construct: purchased Eurofins DiscoverX Corporation

CAMK1B = CAMK1B (Homo sapiens, UniProt Q6P2M8); assay: KINOMEscan; assay type: binding; conditions: 1 μM of compound 4; read-out: POC
TAOK3 = target: T3, TAOK3 (Homo sapiens, UniProt Q9H2K8); assay: KINOMEscan; assay type: binding; conditions: 1 μM of compound 4; read-out: POC
T3 construct: purchased Eurofins DiscoverX Corporation

MUSK = MUSK (Homo sapiens, UniProt O15146); assay: KINOMEscan; assay type: binding; conditions: 1 μM of compound 4; read-out: POC
EGFR(T790M) = target: T4, EGFR(T790M) (Homo sapiens, UniProt P00533, T790M); assay: KINOMEscan; assay type: binding; conditions: 1 μM of compound 4; read-out: POC
T4 construct: purchased Eurofins DiscoverX (KINOMEscan service)

ALK = ALK (Homo sapiens, UniProt Q9UM73); assay: KINOMEscan; assay type: binding; conditions: 1 μM of compound 4; read-out: POC
RIPK1 = target: T5, RIPK1 (Homo sapiens, UniProt Q13546); assay: KINOMEscan; assay type: binding; conditions: 1 μM of compound 4; read-out: POC
T5 construct: purchased Eurofins DiscoverX Corporation (KINOMEscan screening service)

[1] = tested on: L858R EGFR mutant Ba/F3 cells; assay: Ba/F3 cellular antiproliferative experiments; assay type: cell-based; conditions: Mus musculus, BaF3, 72 h, Ba/F3, 72 hours; read-out: Anti-proliferative EC50 ± SE, LR
Description: (§1) Ba/F3 Cellular Antiproliferative Experiments. The parental Ba/F3 cells was a generous gift from the laboratory of Dr. David Weinstock (in 2014), Dr. Pasi Jänne (2020) and was used to generate the wildtype EGFR, wildtype HER2, L858R, and L858R/T790M EGFR mutant Ba/F3 cells. These cells were previously characterized as described. All Ba/F3 cells were cultured in RPMI1640 media with 10% fetal bovine serum and 1% penicillin and streptomycin. All cell lines were tested negative for Mycoplasma using Mycoplasma Plus PCR Primer Set (Agilent) and were passaged and/or used for no longer than 4 weeks for all experiments. Assay reagents were purchased from MilliporeSigma (Cat #R7017-5G). Ba/F3 cells were plated and treated with increasing concentrations of inhibitors in triplicate for 72 hours. Compounds were dispensed using the Tecan D300e Digital Dispenser. Cellular growth or the inhibition of growth was assessed by resazurin viability assay. All experiments were repeated at least 3 times and values were reported as an average of n=3 with standard deviation.

[2] = tested on: wildtype HER2 Ba/F3 cells; assay: Ba/F3 cellular antiproliferative experiments; assay type: cell-based; conditions: Mus musculus, BaF3; Ba/F3, 72 hours; read-out: Anti-proliferative EC50 ± SE, HER2
Description: as §1

[3] = tested on: L858R/T790M EGFR mutant Ba/F3 cells; assay: Ba/F3 cellular antiproliferative experiments; assay type: cell-based; conditions: Ba/F3, 72 hours, read-out: Anti-proliferative EC50 ± SE, LR/TM
Description: as §1

BTK = BTK (Homo sapiens, UniProt Q06187); assay: KINOMEscan; assay type: binding; conditions: 1 μM of compound 4; read-out: POC
EGFR(L858R) = EGFR(L858R) (Homo sapiens, UniProt P00533, L858R); assay: Time-dependent kinase inhibition assay (Sox-based substrate); assay type: biochemical; design: EGFR [L858R], cytoplasmic domain (669-1210), GST-tagged, Carna; purchased Carna 08-510
Description: Time-dependent Kinase Inhibition Assays. Biochemical assays were performed with commercially available EGFR WT, cytoplasmic domain (669-1210), GST-tagged, Carna (Cat #/Lot #: 08-115/21CBS-0127H), EGFR [T790M/L858R] and EGFR [L858R], cytoplasmic domain (669-1210), GST-tagged, Carna (Cat #/Lot #: 08-510/12CBS-0765M). […] BSA was not included in this experiment to prevent interference with irreversible inhibitor characterization via off-target binding. All reactions were run for 240 minutes at 30° C. Time-dependent fluorescence from the Sox-based substrate was monitored in PerkinElmer ProxiPlate-384 Plus, white shallow well microplates (Cat. #6008280) Biotek Synergy Neo 2 microplate reader with excitation (360 nm) and emission (485 nm) wavelengths. 2 was dosed between 0 and 10 μM in 24-point curves with 1.5-fold dilutions. Fluorescence, determined with identical reactions but lacking purified enzyme or crude cell lysate was subtracted from the total fluorescence signal for each time point, with both determined in duplicate, to obtain corrected relative fluorescence units (RFU). Corrected RFU values then were plotted vs. time and the reaction velocity for the first ~40 min (initial reaction rates) were determined from the slope using GraphPad Prism (La Jolla, CA) with units of RFU/min.

RET(V804L) = target: T6, RET(V804L) (Homo sapiens, UniProt P07949, V804L); assay: KINOMEscan; assay type: binding; conditions: 1 μM of compound 4; read-out: POC
T6 construct: purchased Eurofins DiscoverX Corporation (KINOMEscan screening service)

YANK1 = target: T7, YANK1 (Homo sapiens, UniProt Q8WU08); assay: KINOMEscan; assay type: binding; conditions: 1 μM of compound 4; read-out: POC
T7 construct: purchased Eurofins DiscoverX

PIP5K2B = PIP5K2B (Homo sapiens, UniProt P78356); assay: KINOMEscan; assay type: binding; conditions: 1 μM of compound 4; read-out: POC
PIK3CA(I800L) = PIK3CA(I800L) (Homo sapiens, UniProt P42336, I800L); assay: KINOMEscan; assay type: binding; conditions: 1 μM of compound 4; read-out: POC
TLK2 = target: T8, TLK2 (Homo sapiens, UniProt Q86UE8); assay: KINOMEscan; assay type: binding; conditions: 1 μM of compound 4; read-out: POC
T8 construct: purchased Eurofins DiscoverX Corporation

Sequence of EGFR(L858R) (P00533 669-1210 L858R): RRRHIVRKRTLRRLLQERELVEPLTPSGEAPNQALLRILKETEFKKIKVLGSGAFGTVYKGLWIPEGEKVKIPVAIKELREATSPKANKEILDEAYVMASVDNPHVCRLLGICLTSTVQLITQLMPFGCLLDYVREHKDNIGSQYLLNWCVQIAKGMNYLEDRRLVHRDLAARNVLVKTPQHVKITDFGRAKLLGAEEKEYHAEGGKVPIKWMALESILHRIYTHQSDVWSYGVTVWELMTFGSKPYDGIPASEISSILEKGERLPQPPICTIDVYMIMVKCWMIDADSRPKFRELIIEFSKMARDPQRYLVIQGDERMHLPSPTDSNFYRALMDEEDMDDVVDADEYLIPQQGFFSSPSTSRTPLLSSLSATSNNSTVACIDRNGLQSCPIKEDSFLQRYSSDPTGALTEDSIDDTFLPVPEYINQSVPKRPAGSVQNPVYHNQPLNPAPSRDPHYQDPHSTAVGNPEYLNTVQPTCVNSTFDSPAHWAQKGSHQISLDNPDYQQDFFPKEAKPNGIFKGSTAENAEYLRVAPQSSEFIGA
Sequence of CDKL5 (O76039 whole entry): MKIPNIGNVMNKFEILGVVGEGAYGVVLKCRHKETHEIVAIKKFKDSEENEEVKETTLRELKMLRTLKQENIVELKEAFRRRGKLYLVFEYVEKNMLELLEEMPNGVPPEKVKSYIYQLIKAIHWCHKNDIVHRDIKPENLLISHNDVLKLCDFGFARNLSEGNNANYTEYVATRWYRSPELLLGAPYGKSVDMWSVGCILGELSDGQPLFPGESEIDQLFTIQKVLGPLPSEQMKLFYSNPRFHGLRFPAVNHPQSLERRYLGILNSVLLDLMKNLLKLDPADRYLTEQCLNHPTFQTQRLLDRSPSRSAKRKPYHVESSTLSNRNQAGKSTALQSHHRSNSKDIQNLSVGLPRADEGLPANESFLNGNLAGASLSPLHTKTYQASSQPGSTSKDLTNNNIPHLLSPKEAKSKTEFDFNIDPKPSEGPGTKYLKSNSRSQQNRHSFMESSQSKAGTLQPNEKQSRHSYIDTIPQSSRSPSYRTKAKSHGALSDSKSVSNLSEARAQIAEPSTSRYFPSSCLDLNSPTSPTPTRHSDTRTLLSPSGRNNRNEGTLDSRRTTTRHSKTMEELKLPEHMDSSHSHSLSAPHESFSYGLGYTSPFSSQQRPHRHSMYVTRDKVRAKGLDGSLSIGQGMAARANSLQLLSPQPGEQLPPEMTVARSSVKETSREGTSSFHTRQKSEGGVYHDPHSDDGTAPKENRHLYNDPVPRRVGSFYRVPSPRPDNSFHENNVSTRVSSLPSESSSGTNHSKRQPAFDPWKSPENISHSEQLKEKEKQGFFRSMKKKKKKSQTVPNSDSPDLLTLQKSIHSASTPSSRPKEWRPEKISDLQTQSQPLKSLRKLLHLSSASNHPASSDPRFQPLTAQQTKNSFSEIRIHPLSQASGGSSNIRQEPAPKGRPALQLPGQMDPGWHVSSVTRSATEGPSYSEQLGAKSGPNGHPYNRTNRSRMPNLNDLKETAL
T5 sequence (Q13546 whole entry): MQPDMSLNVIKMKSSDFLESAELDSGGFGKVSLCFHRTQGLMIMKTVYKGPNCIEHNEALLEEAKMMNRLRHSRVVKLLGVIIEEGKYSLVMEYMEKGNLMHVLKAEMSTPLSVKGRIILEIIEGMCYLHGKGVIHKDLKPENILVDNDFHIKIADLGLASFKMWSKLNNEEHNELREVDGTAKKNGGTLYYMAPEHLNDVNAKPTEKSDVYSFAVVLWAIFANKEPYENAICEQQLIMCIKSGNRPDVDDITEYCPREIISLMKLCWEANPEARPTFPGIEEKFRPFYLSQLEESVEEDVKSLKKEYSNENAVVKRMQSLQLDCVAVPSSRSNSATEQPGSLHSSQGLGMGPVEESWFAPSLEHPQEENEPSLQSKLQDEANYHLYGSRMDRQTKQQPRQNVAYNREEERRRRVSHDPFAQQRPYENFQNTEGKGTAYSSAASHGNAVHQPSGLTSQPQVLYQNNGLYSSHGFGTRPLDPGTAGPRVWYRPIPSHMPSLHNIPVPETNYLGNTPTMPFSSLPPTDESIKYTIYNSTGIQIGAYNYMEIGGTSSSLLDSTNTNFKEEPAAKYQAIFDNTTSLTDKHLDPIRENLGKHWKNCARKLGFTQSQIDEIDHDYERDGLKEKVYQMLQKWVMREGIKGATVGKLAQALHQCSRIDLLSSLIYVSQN
Sequence of ALK (Q9UM73 19-1620): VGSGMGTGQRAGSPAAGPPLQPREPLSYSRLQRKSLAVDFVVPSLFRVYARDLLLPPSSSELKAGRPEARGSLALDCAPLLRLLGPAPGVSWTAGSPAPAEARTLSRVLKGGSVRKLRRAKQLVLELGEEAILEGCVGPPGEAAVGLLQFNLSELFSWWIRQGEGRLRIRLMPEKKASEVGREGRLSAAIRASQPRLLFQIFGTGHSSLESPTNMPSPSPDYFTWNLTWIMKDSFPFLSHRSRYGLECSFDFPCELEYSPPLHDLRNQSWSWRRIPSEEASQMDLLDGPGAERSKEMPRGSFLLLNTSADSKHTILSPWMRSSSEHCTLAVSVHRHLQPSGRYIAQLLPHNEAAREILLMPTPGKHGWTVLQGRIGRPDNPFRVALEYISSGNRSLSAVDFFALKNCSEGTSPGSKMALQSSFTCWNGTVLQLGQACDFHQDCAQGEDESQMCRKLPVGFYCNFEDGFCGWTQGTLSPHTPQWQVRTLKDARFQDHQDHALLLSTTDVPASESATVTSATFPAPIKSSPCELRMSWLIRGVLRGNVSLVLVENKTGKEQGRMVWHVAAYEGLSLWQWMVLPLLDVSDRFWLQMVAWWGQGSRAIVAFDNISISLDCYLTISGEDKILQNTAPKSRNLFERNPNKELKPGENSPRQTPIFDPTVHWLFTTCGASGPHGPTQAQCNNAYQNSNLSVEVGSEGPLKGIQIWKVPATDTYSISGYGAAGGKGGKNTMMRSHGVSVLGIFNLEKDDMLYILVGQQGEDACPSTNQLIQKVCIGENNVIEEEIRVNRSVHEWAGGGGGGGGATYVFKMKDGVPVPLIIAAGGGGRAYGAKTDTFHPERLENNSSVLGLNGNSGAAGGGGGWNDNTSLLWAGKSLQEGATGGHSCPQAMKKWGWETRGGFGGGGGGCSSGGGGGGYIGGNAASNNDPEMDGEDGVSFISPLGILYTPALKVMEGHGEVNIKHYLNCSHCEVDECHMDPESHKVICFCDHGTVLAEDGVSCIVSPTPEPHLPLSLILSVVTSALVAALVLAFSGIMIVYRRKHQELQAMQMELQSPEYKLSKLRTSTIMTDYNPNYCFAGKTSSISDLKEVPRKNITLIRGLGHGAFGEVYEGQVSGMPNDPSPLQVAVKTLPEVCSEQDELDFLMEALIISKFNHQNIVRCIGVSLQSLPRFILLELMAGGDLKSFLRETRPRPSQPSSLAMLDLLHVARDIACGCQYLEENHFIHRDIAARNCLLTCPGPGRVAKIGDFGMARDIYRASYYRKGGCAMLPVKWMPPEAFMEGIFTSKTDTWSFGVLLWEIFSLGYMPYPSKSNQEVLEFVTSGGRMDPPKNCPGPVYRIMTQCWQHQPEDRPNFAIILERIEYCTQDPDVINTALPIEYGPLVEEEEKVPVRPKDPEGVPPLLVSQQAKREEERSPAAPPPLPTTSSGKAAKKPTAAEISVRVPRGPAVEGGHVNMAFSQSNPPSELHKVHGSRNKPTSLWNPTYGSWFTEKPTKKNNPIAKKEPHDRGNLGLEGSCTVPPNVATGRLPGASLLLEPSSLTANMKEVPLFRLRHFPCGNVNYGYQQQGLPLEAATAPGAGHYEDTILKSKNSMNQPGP
T1 sequence (P22455 22-802): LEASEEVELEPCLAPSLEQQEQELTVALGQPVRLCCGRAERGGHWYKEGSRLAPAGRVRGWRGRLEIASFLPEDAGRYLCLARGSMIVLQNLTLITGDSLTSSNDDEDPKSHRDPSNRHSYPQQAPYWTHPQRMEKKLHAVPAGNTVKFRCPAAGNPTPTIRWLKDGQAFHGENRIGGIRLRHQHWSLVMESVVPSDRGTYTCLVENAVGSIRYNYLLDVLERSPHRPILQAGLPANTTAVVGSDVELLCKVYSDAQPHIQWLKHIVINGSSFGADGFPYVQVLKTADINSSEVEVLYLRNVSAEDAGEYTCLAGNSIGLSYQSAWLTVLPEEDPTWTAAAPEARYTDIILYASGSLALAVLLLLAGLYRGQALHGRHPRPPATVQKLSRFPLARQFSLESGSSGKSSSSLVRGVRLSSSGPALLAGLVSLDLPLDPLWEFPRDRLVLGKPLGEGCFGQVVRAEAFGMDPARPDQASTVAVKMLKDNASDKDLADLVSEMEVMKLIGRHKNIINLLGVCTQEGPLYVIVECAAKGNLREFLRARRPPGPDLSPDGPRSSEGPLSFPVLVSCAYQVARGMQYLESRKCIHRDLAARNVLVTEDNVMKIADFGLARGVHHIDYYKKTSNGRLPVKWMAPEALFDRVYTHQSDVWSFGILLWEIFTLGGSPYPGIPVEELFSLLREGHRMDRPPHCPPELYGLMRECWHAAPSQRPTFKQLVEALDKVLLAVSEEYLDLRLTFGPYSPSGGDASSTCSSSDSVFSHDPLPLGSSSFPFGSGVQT
Sequence of CAMK1B (Q6P2M8 whole entry): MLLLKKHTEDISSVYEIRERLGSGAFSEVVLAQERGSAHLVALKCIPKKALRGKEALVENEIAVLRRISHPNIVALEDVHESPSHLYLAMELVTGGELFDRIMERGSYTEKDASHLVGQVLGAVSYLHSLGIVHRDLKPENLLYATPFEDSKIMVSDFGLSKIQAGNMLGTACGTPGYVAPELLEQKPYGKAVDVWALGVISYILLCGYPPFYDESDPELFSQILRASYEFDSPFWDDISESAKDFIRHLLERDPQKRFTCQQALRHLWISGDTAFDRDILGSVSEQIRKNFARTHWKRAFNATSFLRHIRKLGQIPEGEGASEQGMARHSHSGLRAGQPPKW

C=CC(=O)Nc1ccc(OC)c(Nc2cc(-c3[nH]c(CC)nc3-c3cccc(NC(=O)c4cccc5c4NC(=O)c4ccccc4N5)c3)ccn2)c1 [Compound 4, N-(3-(5-(2-((5-Acrylamido-2-methoxyphenyl)amino)pyridin-4-yl)-2-ethyl-1H-imidazol-4-yl)phenyl)-11-oxo-10,11-dihydro-5H-dibenzo[b,e][1,4]diazepine-9-carboxamide]
remaining binding at 1 µM (CDKL5): 98%
remaining binding at 1 µM (PLK3): 87%
remaining binding at 1 µM (FGFR4): 100%
remaining binding at 1 µM (DCAMKL2): 100%
remaining binding at 1 µM (MST3): 73%
remaining binding at 1 µM (NEK10): 86%
remaining binding at 1 µM (SYK): 63%
remaining binding at 1 µM (CAMK1B): 94%
remaining binding at 1 µM (TAOK3): 95%
remaining binding at 1 µM (MUSK): 100%
remaining binding at 1 µM (EGFR(T790M)): 12%
remaining binding at 1 µM (ALK): 100%
remaining binding at 1 µM (RIPK1): 100%
EC50 [1]: ~200 nM
EC50 [2]: 1930 ± 1010 nM
EC50 [3]: 770 ± 390 nM
EC50 ([3]; Mus musculus, BaF3, 72 h): ~750 nM
remaining binding at 1 µM (BTK): 54%
kinact (EGFR(L858R)): 0.00867 s⁻¹
Ki (EGFR(L858R); read-out: KI, LR): 610 ± 30 nM
kinact/KI (EGFR(L858R); read-out: kinact/KI, LR): 14100 ± 300 M⁻¹ s⁻¹
remaining binding at 1 µM (RET(V804L)): 99%
remaining binding at 1 µM (YANK1): 84%
remaining binding at 1 µM (PIP5K2B): 100%
remaining binding at 1 µM (PIK3CA(I800L)): 100%
remaining binding at 1 µM (TLK2): 87%
